Values of other authors as cited in paper PMC10071776, “Binding proteins of destruxin A from Metarhizium against insect cell” (BMC Microbiology, 2023).
Where a SMILES comes first, the peptide text is derived from it. [ ]: non-standard residue; d: D form. dLac(3-vinyl) = C=CC[C@@H](O)C(=O)O; NMeV = CN[C@H](C(=O)O)C(C)C; NMeA = CN[C@@H](C)C(=O)O; βAla = NCCC(=O)O

Experiments:
[1] = stated in SPR method; no measurement described, no reference given
insects = details: no reference given
From the text: (§1) The multi-target strategy of destruxin has resulted from the evolution of interactions between Metarhizium spp. and insects. When Metarhizium spp. invades a host insect, it secretes a variety of structurally similar destruxins that attack as many tissues and organs. These produce a diseased state, weakening insect resistance and enabling successfully fungus colonization.

tumor = details: no reference given
From the text: as §1

hemocyte ATPase = details: higher than DA; ref [13]
From the text: as §1

For `C=CC[C@H]1OC(=O)CCNC(=O)[C@H](C)N(C)C(=O)[C@H](C(C)C)N(C)C(=O)[C@H]([C@@H](C)CC)NC(=O)[C@@H]2CCCN2C1=O` [DA, Destruxin A] (cyclo(I[NMeV][NMeA][βAla][dLac(3-vinyl)]P)), the solubility in water [1] is listed as “insoluble in water”.

For destruxin B [DB], the “insecticidal activity relative to DA” value (insects) is given as “lower insecticidal activity than DA”, the “antitumor activity relative to DA” value (tumor) is given as “greater antitumor activity than DA” and the “affinity of DB relative to DA” value (hemocyte ATPase) is given as 100 times.
